Experimental data reported in patent US8153773B2, “Synthesis and use of anti-reverse phosphorothioate analogs of the messenger RNA cap” (Board of Supervisors of Louisiana State University and …, priority 2007, dated 2012).

Tests used:
hDcp2 [1] = target: T1, hDcp2 (Homo sapiens, UniProt Q8IU60); experiment: In vitro RNA decapping assay with recombinant hDcp2; assay type: biochemical; conditions: capped 32P-labeled short RNA, recombinant hDcp2, anion exchange HPLC (FIG. 6)
Experimental: Dcp2 activity was measured with capped 48-nt oligonucleotides as substrates, a truncated form of luciferase mRNA (48 nucleotides). GST-hDcp2 was expressed in Escherichia coli and purified as described by Z. Wang et al., “The hDcp2 protein is a mammalian mRNA decapping enzyme,” Proc. Natl. Acad. Sci. U.S.A., vol. 99, pp. 12663-12668 (2002). Capped oligonucleotides were first subjected to digestion with GST-hDcp2 at 37° C. for 2 h in decapping buffer (10 mM Tris-HCl, pH 7.5, 100 mM potassium acetate, 2 mM magnesium acetate, 0.5 mM MnCl2, 2 mM dithiothreitol, and 0.1 mM spermine). See C. Piccirillo et al., “Functional characterization of the mammalian mRNA decapping enzyme hDcp2,” RNA, vol. 9, pp. 1138-1147 (2003). The reaction mixture was then extracted once with an equal volume of phenol and twice with chloroform, and RNA was precipitated with ethanol. Products of the decapping reaction were further digested with a cocktail of ribonucleases (RiboShredder; Epicentre) at 37° C. for 1 h. The products were resolved by anion-exchange HPLC on a 4.6×250-mm Partisil 10SAX/25 column (Whatman). The gradient consisted of water for 1 min, a linear gradient to 112 mM KH2PO4, pH 4.5, for 20 min, a linear gradient of 112-450 mM KH2PO4 for 15 min, a linear gradient of 450 mM to 1.5 M KH2PO4 for 15 min, and isocratic elution at 1.5 M of KH2PO4 for 9 min, all at a flow rate 1 ml/min.
We tested oligonucleotides capped with either of S-ARCAs for hydrolysis by recombinant hDcp2 to test whether mRNA capped with the various diastereomers of m2^7,2′-OGpppsG and m2^7,2′-OGppspG would differ in their sensitivity to cleavage by Dcp1/Dcp2. See generally Z. Wang et al., “The hDcp2 protein is a mammalian mRNA decapping enzyme,” Proc. Natl. Acad. Sci. U.S.A., vol. 99, pp. 12663-12668 (2002), and Z. Wang et al., “An mRNA Stability Complex Functions with Poly(A)-Binding Protein To Stabilize mRNA In Vitro”, Mol. Cell. Biol., vol. 19, pp. 4552-4560 (1999). Cap analogs used were initially unlabeled, so to follow the products of the digestion reaction we synthesized capped oligonucleotides in the presence of [α-^32P]GTP and a DNA template in which G was the first ribonucleotide specified after the promoter. The oligonucleotides capped with either of the S-ARCAs were subjected to Dcp2 digestion in vitro, after which the products were further digested with a cocktail of ribonucleases (RiboShredder from Epicenter). Any nucleotide on the 5′ side of a G residue acquired a ^32P-labeled 3′-phosphate group after ribonuclease digestion by nearest-neighbor transfer. Anion exchange chromatography was then used to resolve the labeled 3′-nucleoside monophosphates (3′-NMP*), at internal positions in the RNA, from labeled 5′-terminal products (FIG. 6). The latter comprise p3 Gp* derived from uncapped transcripts and m2^7,2′-OGp3 Gp* (when m2^7,2′-OGp3G was used), or pGp* resulting from capped RNA resistant or nonresistant to enzymatic cleavage, respectively. All cap analogs used were ARCAs, which ensured that they were incorporated into RNA exclusively in the correct orientation. This further guaranteed that only one 5′-terminal product (m2^7,2′-OGp3 Gp*) was observed upon ribonuclease treatment. Uncapped RNA is not a substrate for Dcp2, which explains why p3 Gp* product was observed after Dcp2 digestion.
See E. Grudzien et al., “Differential inhibition of mRNA degradation pathways by novel cap analogs,” J. Biol. Chem., vol. 281, pp. 1857-1867 (2006).

hDcp2 [2] = target: T1, hDcp2; conditions: Grudzien et al. 2006; cited from earlier work
murine eIF4E (28-217) = target: T2, murine eIF4E (28-217) (Mus musculus, UniProt P63073); experiment: Binding affinities for eIF4E by fluorescence quenching; conditions: murine eIF4E (28-217)
T2 construct: (28-217) to phosphorothioate cap analogs, as determined
T2 sequence (P63073 28-217): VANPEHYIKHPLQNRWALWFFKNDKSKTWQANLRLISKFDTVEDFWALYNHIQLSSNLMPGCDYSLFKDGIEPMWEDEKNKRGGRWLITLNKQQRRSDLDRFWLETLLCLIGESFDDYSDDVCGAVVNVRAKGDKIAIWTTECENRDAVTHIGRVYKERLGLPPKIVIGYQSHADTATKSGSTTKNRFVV
Experimental: Binding affinities of S analogs for murine eIF4E were determined by fluorescence quenching. Fluorescence titration measurements were carried out on an LS-50B spectrofluorometer (Perkin Elmer Co.) in 50 mM HEPES/KOH (pH 7.2), 100 mM KCl, 0.5 mM EDTA, 1 mM DTT at 20.0±0.2° C. Aliquots of 1 μl increasing concentration of cap analogue solutions were added to 1.4 ml of […] solutions. Fluorescence intensities (excitation at 280 nm with 2.5 nm bandwidth and detection at 337 nm with 4 nm bandwidth and 290 nm cut-off filter) were corrected taking into account sample dilution and the inner filter effect. Equilibrium association constants (KAS) were determined by fitting the theoretical dependence of the fluorescence intensity on the total concentration of cap analogue to the experimental data points according to equation described previously (See A. Niedzwiecka et al., “Biophysical studies of eIF4E cap-binding protein: recognition of mRNA 5′ cap structure and synthetic fragments of eIF4G and 4E-BP1 proteins,” J. Mol. Biol., vol. 319, pp. 615-635 (2002)). The concentration of protein was fitted as a free parameter of equilibrium equation showing amount of “active” protein. The final KAS was calculated as a weighted average of three to ten independent titrations, with the weights taken as the reciprocals of the numerical standard deviations squared. Numerical nonlinear least-squares regression analysis was performed using ORGIN 6.0 (Microcal Software Inc., USA). The Gibbs free energy of binding was calculated from the KAS value according to the standard equation ΔG°=−RTlnKAS.

HC11 cells = experiment: Translational efficiency of capped luciferase mRNA in HC11 cells; assay type: cell-based, mouse; conditions: Luc-A60 mRNA capped with the analog in HC11 cells, relative to m^7Gp3G-capped mRNA
Experimental: Two methods, electroporation and nucleoporation, were used to deliver RNA into cells. In case of electroporation, 5 μg of RNA were introduced into 10^7 HC11 cells in a total volume 400 μl of serum-reduced RPMI 1640 medium in a Gene pulser cuvette (4 mm gap) with a Bio-Rad Genepulser™ set at 0.22 kV and 960 μF. Following discharge, the cells were washed twice with PBS, centrifuged for 2 min 300×g at room temperature, resuspended in prewarmed complete medium, and placed at 37° C. Nucleoporation was performed with an Amaxa Nucleofector II (Amaxa Biosystems) in accordance with manufacture's recommendations. One microgram of RNA was introduced into 10^6 HC11 cells with Nucleofector Solution V and the set of recommended regimens (program T-024).
For measurement of translational efficiency, cells were divided into several Eppendorf tubes, placed in a water bath at 37° C., and shaken. For measurement of mRNA stability, cells were distributed into 35-mm cell culture dishes and placed at 37° C. in a 5% CO2 humidified atmosphere. Cells were harvested at various times and washed twice with PBS.
For cytoplasmic RNA extraction, 2×10^5 cells were lysed in 175 μl of lysis buffer (50 mM Tris-HCl, pH 8.0, 140 mM NaCl, 1.5 mM MgCl2, 0.5% (v/v) Igepal (Sigma), and 1 mM dithiothreitol). RNAs were further purified using the RNeasy mini kit. For protein extraction, 2×10^5 cells were lysed in 200 μl of Luciferase Cell Culture Lysis Reagent (Promega). Luciferase activity of cell extracts was measured according to the manufacturer's protocol (Promega).
We also determined the translational efficiency in cultured cells for luciferase mRNA capped with S-ARCAs. This involved two measurements conducted at various times following nucleoporation—luciferase activity measured by luminometry in cleared cell lysates, and Luc-A60 levels measured by real-time PCR. Luciferase activity was normalized by the amount of luciferase mRNA that had been delivered into cells. To determine the amount of RNA present in the cells at a time immediately after nucleoporation, i.e., before any decay had occurred, cells were harvested at various times between 2 to 8 h post-nucleoporation, and cytoplasmic RNA was extracted. The amount of luciferase mRNA was measured by real time PCR using primers that amplify sequences near the 5′-end. Luciferase mRNA remaining at each time point was plotted as log10 ([RNA]) versus time to determine t1/2. The curve was extrapolated to 0 h, and the amount of RNA delivered into the cells was calculated. We defined conditions under which the accumulation of luciferase was linear with time, after an initial lag period of ˜30 min for recruitment of mRNA to ribosomes, completing the first polypeptide chain, and release of luciferase into the cytosol.

DcpS [3] = target: T3, DcpS (Caenorhabditis elegans, UniProt G5EFS4); experiment: Enzymatic hydrolysis by C. elegans DcpS; assay type: biochemical; design: key: the analogs assigned as resistant remained completely undigested under the applied conditions; the analogs assigned as hydrolyzed were hydrolyzed by DcpS with efficiency comparable to the respective unmodified parent compound; conditions: conditions giving complete degradation of unmodified parent within 40-90 min, RP HPLC
T3 sequence (G5EFS4 1-311): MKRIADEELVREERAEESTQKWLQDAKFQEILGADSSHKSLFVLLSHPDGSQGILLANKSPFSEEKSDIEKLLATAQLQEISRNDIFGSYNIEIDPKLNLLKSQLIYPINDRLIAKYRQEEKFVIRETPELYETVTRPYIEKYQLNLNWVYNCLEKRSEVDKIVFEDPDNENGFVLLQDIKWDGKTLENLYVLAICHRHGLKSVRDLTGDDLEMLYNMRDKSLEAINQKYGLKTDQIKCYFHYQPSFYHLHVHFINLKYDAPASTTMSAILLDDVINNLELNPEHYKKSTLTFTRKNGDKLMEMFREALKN
Experimental: (§1) Human and nematode DcpS were expressed in Escherichia coli according to the procedures described previously (L. S. Cohen et al., “Nematode m7 GpppG and m3(2,2,7)GpppG decapping: activities in Ascaris embryos and characterization of C. elegans scavenger DcpS,” RNA, vol. 10, pp. 1609-1624 (2004)). Both proteins were stored at −80° C. in 20 mM Tris buffer, pH 7.5, containing 50 mM KCl, 0.2 mM EDTA, 1 mM DTT, 0.5 mM PMSF, and 20% glycerol. An appropriate cap analog at 1 mM concentration was treated with 5.0 or 7.0 μl of DcpS (from human or C. elegans, respectively) in 500 μl of 50 mM TRIS buffer, pH=7.9, containing 20 mM of MgCl2 and 60 mM of (NH4)2SO4 at 37° C. for 60-90 min. Every 15-20 min a 100 μl sample was collected from the reaction mixture and deactivated by incubation in 90° C. for 3 min. Collected samples were analyzed without further treatment by analytical RP HPLC using a linear gradient of methanol in 0.1 M KH2PO4, pH=6.0, from 0-50% within 15 min and UV-detection at 260 nm.
(§2) The new series of S-analogs were subjected to in vitro enzymatic hydrolysis catalyzed by DcpS from both human and C. elegans sources. In all experiments, the corresponding unmodified cap analog was used as a positive control, i.e., m^7GpppG for non-ARCA S-analogs and m2^7,2′-OGpppG for S-ARCAs. The amount of DcpS enzyme was optimized to provide complete degradation of the control substrate within 40-90 min. The samples collected from reaction mixtures at various time intervals were analyzed by RP HPLC (as described in Materials and Methods).
(§3) In Table 4, cap analogs at 4 μM concentration were subjected to enzymatic digestion by DcpS in conditions leading to complete degradation of the unmodified parent compound (i.e. m^7GpppG for non-ARCA S-analogs and m2^7,2′-OGpppG for ARCAs) within 40-90 min. Samples collected from reaction mixtures at various time intervals were analysed by RP HPLC with UV detection at 260 nm as described in Materials and Methods. […] The result was unchanged even if the reaction time was extended to 24 h, various amounts of enzyme were used, and composition of the reaction buffer was modified.

DcpS [4] = target: T4, DcpS (Homo sapiens, UniProt Q96C86); experiment: Enzymatic hydrolysis by human DcpS; assay type: biochemical; design: key: the analogs assigned as resistant remained completely undigested under the applied conditions; the analogs assigned as hydrolyzed were hydrolyzed by DcpS with efficiency comparable to the respective unmodified parent compound; conditions: conditions giving complete degradation of unmodified parent within 40-90 min, RP HPLC
T4 sequence (Q96C86 1-337): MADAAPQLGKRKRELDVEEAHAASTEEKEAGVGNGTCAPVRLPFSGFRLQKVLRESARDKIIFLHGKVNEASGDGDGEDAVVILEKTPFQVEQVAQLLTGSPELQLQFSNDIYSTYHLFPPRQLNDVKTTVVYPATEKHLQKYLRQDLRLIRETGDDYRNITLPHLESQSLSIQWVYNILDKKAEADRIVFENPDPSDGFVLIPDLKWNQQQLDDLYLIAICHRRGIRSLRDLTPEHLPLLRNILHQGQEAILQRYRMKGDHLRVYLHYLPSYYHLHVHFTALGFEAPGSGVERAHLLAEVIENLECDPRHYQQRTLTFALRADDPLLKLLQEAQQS
Experimental: as §1, §2, §3

Row | SMILES | hydrolysis of capped oligonucleotide by hDcp2 (hDcp2 [1]) | hydrolysis of capped mRNA by recombinant human Dcp2 in vitro (hDcp2 [2]) | ΔG° (murine eIF4E (28-217); binding free energy calculated from KAS) [kcal/mol] | KAS (murine eIF4E (28-217); equilibrium association constant, fluorescence quenching) [µM⁻¹] | Relative translational efficiency (HC11 cells) | Resistance to enzymatic hydrolysis by DcpS (from C. elegans) (DcpS [3]) | Resistance to enzymatic hydrolysis by DcpS (human) (DcpS [4])
1 | CO[C@H]1[C@@H](O)[C@H](n2c[n+](C)c3c(=O)[nH]c(N)nc32)O[C@@H]1COP(=O)(O)OP(=O)(O)CP(=O)(O)OC[C@H]1O[C@@H](n2cnc3c(=O)[nH]c(N)nc32)[C@H](O)[C@@H]1O [m2^7,3′-OGppCH2pG, reference compound] | resistant | resistant to hydrolysis |  |  |  |  | 
2 | Cn1c[n+]([C@@H]2O[C@H](COP(=O)(O)OP(=O)([O-])OP(=O)(O)OC[C@H]3O[C@@H](n4cnc5c(=O)[nH]c(N)nc54)[C@H](O)[C@@H]3O)[C@@H](O)[C@H]2O)c2nc(N)[nH]c(=O)c21 [m^7GpppG, reference compound] |  |  | -9.35 ± 0.02 | 9.4 ± 0.4 | 1.00 | hydrolyzed | hydrolyzed
